Columns and labels:
[1] = target: T1, ICCG (unidentified prokaryotic organism, UniProt G9BY57, Y127G/D238C/F243I/S283C); assay: inhibition of mp-PET hydrolysis, HPLC of products; type: biochemical; conditions: 1 mM MHET, mp-PET substrate, 40°C, pH 8.5, 10 mM CaCl2, 72 h; product inhibition
T1 construct: quadruple variant of LCC; only D238C/S283C given, the other two changes (F243I, Y127G) known from Tournier et al. 2020; expression construct not described; PDB 6THT given as the ICCG structure used for modelling
T1 sequence (G9BY57 36-293 Y127G/D238C/F243I/S283C): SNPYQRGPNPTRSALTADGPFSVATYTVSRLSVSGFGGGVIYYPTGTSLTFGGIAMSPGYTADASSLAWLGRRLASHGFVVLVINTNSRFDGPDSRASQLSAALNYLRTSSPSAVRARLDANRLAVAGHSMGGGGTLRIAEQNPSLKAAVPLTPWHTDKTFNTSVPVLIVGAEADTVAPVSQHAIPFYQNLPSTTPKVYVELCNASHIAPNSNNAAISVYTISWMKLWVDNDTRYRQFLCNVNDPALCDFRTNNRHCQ

[2] = target: T2, IsPETase (Pseudideonella sakaiensis, UniProt A0A0K8P6T7); assay: inhibition of mp-PET hydrolysis, HPLC of products; type: biochemical; conditions: 1 mM MHET, mp-PET substrate, 40°C, pH 8.5, 10 mM CaCl2, 72 h; product inhibition
T2 construct: gene ISF6_4831; purified enzyme; expression construct not described
T2 sequence (A0A0K8P6T7 28-290): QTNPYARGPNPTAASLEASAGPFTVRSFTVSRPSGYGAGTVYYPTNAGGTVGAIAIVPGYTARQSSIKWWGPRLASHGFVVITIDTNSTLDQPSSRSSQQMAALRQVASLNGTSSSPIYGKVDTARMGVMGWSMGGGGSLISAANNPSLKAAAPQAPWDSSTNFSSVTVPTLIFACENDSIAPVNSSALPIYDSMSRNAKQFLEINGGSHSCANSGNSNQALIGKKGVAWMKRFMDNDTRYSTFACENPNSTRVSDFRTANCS

With O=C(O)c1ccc(C(=O)OCCO)cc1 [MHET] the “inhibition at 1 mM” value [1] was “in the presence of MHET, significant inhibitory effects were detected toward IsPETase and ICCG” and the “inhibition at 1 mM” value [2] was “in the presence of MHET, significant inhibitory effects were detected toward IsPETase and ICCG”.

Source: publication PMC9086285, “Catalytic Features and Thermal Adaptation Mechanisms of a Deep Sea Bacterial Cutinase-Type Poly(Ethylene Terephthalate) Hydrolase” (Frontiers in Bioengineering and Biotechnology, 2022)
